# Laboratory results published in ChEMBL document CHEMBL3351729, “Discovery of indanone derivatives as multi-target-directed ligands against Alzheimer's disease” (Eur J Med Chem, 2014).
# Activity calls are given as the source filed them. No cut-off for these calls is given here.
# Tests used:
# Acetylcholinesterase [1] = molecular target: Acetylcholinesterase (Electrophorus electricus, UniProt O42275); assay: Inhibition of electric eel AChE preincubated for 15 mins by Ellman's method
# [2] = molecular target: Amyloid-beta precursor protein (Homo sapiens) (UniProt P05067); assay: Inhibition of amyloid beta (1-42) self-mediated aggregation (unknown origin) at 20 uM after 48 hrs by thioflavin T fluorescence method
# Sequence of Amyloid-beta precursor protein (Homo sapiens) (P05067 whole entry): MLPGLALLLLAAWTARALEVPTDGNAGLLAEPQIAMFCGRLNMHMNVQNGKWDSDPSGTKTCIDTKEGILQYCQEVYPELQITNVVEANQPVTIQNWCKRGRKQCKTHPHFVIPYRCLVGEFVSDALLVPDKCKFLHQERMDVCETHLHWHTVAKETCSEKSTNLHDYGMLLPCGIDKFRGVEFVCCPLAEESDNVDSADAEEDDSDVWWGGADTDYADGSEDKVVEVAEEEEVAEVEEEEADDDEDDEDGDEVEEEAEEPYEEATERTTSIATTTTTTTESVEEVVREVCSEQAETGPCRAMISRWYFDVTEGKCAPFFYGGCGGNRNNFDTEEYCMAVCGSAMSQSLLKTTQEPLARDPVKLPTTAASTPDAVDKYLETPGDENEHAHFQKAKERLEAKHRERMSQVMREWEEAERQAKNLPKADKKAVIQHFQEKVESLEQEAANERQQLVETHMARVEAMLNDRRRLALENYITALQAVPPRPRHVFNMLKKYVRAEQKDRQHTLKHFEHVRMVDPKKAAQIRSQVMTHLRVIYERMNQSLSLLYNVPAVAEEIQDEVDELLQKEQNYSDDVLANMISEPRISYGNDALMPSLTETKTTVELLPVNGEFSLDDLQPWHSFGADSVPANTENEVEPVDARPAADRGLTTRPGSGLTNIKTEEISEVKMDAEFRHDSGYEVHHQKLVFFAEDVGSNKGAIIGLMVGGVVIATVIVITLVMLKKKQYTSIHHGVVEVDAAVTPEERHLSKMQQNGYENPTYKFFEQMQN
# Butyrylcholinesterase = Butyrylcholinesterase (Equus caballus, UniProt Q9N1N9)
# Sequence of Butyrylcholinesterase (Q9N1N9 whole entry): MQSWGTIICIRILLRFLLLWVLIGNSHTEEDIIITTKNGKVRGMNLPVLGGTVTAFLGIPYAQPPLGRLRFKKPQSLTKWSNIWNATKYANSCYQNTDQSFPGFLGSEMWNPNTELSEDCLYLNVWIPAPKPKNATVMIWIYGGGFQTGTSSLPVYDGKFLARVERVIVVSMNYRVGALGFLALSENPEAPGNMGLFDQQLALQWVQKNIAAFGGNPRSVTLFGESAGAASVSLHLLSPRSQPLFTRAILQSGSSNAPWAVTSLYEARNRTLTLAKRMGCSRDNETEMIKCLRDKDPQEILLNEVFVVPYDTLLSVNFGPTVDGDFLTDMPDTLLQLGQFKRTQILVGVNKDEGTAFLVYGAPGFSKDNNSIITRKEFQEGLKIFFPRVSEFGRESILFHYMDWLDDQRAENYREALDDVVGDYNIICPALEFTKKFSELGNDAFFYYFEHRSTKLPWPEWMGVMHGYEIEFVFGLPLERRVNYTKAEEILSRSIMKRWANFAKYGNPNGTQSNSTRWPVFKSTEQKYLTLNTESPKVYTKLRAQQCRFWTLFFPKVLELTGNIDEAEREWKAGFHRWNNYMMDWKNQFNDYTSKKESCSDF
# Description: Inhibition of equine BChE preincubated for 15 mins by Ellman's method
# Acetylcholinesterase [3] = molecular target: Acetylcholinesterase (Homo sapiens, UniProt P22303); assay: Inhibition of human erythrocyte AChE preincubated for 15 mins by Ellman's method
# Sequence of Acetylcholinesterase (Homo sapiens, UniProt P22303) (P22303 whole entry): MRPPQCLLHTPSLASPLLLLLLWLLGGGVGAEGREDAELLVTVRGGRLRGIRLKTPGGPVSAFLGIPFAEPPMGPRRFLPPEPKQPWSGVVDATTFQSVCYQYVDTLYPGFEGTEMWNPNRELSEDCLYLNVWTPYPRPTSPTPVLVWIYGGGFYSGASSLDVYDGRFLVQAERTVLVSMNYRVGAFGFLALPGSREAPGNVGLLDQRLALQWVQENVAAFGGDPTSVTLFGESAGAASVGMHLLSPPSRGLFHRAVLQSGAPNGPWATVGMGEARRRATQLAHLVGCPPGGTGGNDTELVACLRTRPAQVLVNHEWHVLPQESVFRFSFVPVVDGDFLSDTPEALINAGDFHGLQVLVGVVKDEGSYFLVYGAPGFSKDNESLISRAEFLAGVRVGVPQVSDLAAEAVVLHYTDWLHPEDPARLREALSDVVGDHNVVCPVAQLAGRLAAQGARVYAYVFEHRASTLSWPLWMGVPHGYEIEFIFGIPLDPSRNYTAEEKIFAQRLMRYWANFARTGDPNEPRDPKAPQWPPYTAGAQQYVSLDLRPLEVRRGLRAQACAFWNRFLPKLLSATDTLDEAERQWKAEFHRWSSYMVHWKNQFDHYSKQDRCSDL
# [4] = molecular target: Amyloid-beta precursor protein (Homo sapiens) (UniProt P05067); assay: Inhibition of amyloid beta (1-42) (unknown origin) fibril formation at 20 uM after 24 hrs by transmission electron microscopy
# [5] = molecular target: Amyloid-beta precursor protein (Homo sapiens) (UniProt P05067); assay: Disaggregation of amyloid beta (1-42) fibrils (unknown origin) at 20 uM after 24 hrs by thioflavin T fluorescence method
# [6] = molecular target: Amyloid-beta precursor protein (Homo sapiens) (UniProt P05067); assay: Disaggregation of amyloid beta (1-42) fibrils (unknown origin) at 20 uM after 24 hrs by transmission electron microscopy
# Sequence of Acetylcholinesterase (Electrophorus electricus, UniProt O42275) (O42275 whole entry): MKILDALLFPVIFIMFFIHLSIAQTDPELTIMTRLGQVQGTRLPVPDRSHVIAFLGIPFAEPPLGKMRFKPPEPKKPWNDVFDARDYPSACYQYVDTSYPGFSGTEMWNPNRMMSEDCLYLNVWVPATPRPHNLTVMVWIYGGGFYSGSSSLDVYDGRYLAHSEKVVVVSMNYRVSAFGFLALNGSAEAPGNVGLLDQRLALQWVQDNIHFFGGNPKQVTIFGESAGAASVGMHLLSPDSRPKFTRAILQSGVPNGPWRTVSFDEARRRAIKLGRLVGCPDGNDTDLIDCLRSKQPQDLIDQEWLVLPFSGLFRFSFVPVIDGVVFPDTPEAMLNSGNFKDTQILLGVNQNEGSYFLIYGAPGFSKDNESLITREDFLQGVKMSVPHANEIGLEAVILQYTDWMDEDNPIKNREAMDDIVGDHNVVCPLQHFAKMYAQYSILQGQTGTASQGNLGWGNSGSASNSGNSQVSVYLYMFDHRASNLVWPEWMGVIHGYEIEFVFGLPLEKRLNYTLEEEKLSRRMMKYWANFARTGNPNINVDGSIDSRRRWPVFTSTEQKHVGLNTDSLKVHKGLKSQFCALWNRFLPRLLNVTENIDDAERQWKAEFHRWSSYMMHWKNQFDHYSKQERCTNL
Compound,IC50 (Acetylcholinesterase [1]),inhibition [2],IC50 (Butyrylcholinesterase),IC50 (Acetylcholinesterase [3]),inhibition [4],Activity [5],Activity [6]
COc1ccc(/C=C2\Cc3cc(OC)c(OCCN4CCCCC4)cc3C2=O)cc1,14.8 nM,inactive,3210 nM,,,,
COc1cc2c(cc1OCCNC1CCCCC1)C(=O)/C(=C/c1ccc(N(C)C)cc1)C2,102 nM,84.3%,363 nM,,,,
CCN(CC)c1ccc(/C=C2\Cc3cc(OC)c(OCCCCCN4CCCCC4)cc3C2=O)cc1,5730 nM,,2840 nM,,,,
CCCN(C)c1ccc(/C=C2\Cc3cc(OC)c(OCCN4CCCCC4)cc3C2=O)cc1,18.6 nM,83.8%,1420 nM,390 nM,Active,73.8%,Active
CNc1ccc(/C=C2\Cc3cc(OC)c(OCCN4CCCCC4)cc3C2=O)cc1,16.8 nM,,1640 nM,301 nM,,,
COc1cc2c(cc1OCCCCCN1CCCCC1)C(=O)/C(=C/c1ccc(N(C)C)cc1)C2,1030 nM,,2440 nM,,,,
CCN(CC)c1ccc(/C=C2\Cc3cc(OC)c(OCCN4CCCCC4)cc3C2=O)cc1,14.8 nM,85.5%,1380 nM,536 nM,Active,65%,Active
COc1cc2c(cc1OCCCNC1CCCCC1)C(=O)/C(=C/c1ccc(N(C)C)cc1)C2,1540 nM,,1330 nM,,,,
CCCN(CCC)c1ccc(/C=C2\Cc3cc(OC)c(OCCN4CCCCC4)cc3C2=O)cc1,14.6 nM,,1770 nM,954 nM,,,
CCN(CC)c1ccc(/C=C2\Cc3cc(OC)c(OCCCN4CCCCC4)cc3C2=O)cc1,371 nM,,2820 nM,,,,
COc1cc2c(cc1OCCCN1CCCCC1)C(=O)/C(=C/c1ccc(N(C)C)cc1)C2,330 nM,,1460 nM,,,,
COc1cc2c(cc1OCCN1CCCCC1)C(=O)/C(=C/c1ccc(N(C)C)cc1)C2,16.5 nM,,1490 nM,285 nM,,,
COc1cc2c(cc1OCCCCNC1CCCCC1)C(=O)/C(=C/c1ccc(N(C)C)cc1)C2,9180 nM,,1130 nM,,,,
CCN(C)c1ccc(/C=C2\Cc3cc(OC)c(OCCN4CCCCC4)cc3C2=O)cc1,25.5 nM,85.2%,1270 nM,426 nM,,,
